Source: PMC10480608 (Heliyon, 2023)

Legend:
[1] = system: normal human dermal/fibroblasts; assay: MTT cytotoxicity assay, normal fibroblasts; type: cell-based; details: Homo sapiens, Fibroblast, 72 h, read-out: IC50 ± SD, Fibro dental
[2] = system: MCF-7 (human breast adenocarcinoma); assay: MTT cytotoxicity assay, MCF-7; type: cell-based; details: Homo sapiens, MCF7, 72 h, read-out: IC50 ± SD, MCF7
MCF-7 cell lines = assay: Dose response study, growth rate; type: cell-based, human; details: MCF-7, treatment for 24 h, tested 1–300 μg/mL

SMILES	IC50 [1] [µM]	IC50 [2] [µM]	concentration range with cytostatic effect (GR values) (MCF-7 cell lines)	concentration range with cytotoxic effect (GR values) (MCF-7 cell lines)
Cc1ccc(Cn2cc(CN3CCN(c4c([N+](=O)[O-])nc(C)n4Cc4ccccc4)CC3)nn2)cc1 [Compound 9k, 1-(N1-benzyl-2-methyl-4-nitro-imidazole-5-yl)-4-((N1-(4-methylbenzyl)-1H-1,2,3-triazol-4-yl)methyl)piperazine]	> 500	5 ± 2	37.5 to 1 μg/mL	75 to 300 µg/mL
Cc1nc([N+](=O)[O-])c(N2CCN(Cc3cn(Cc4cccc(F)c4)nn3)CC2)n1Cc1ccccc1 [Compound 9g, 1-(N1-benzyl-2-methyl-4-nitro-imidazole-5-yl)-4-((N1-(3-fluorobenzyl)-1H-1,2,3-triazol-4-yl)methyl)piperazine]	> 500	2 ± 0.03	1 to 300 µg/mL	did not show cytotoxic effects
